For test [1], the system named is RKO colon adenocarcinoma cells (RKOp27) arrested by the expression of ectopic p27Kip1. As to the kind of experiment: Alamar Blue cell viability assay on RKOp27 cells arrested by p27Kip1 expression induced by Ponasterone A. The format is cell-based. Particulars: Homo sapiens, 72 hours incubation, 10 μM Ponasterone A, read-out: IC50 RKO p27 induced (arrested). On the procedure:
To determine the cell cycle specific mode of action, subclones of RKO colon adenocarcinoma cells (RKOp27 or RKOp21 as described by Schmidt et al. in Oncogene 19, 2423-2429; 2000) are seeded into 96 well flat bottom plates at a density of 15000 cells per well in a volume of 50 μl per well in DMEM growth medium with 10% FCS containing 10 μM Ponasterone A. 24 hours after seeding the 50 μl each of the compound dilutions in DMEM medium are added into each well of the 96 Well plate. Each compound dilution is tested as quadruplicates. Wells containing untreated control cells are filled with 50 μl DMEM medium containing 1% DMSO. The cells are then incubated with the substances for 72 hours at 37° C. in a humidified atmosphere containing 5% carbon dioxide. To determine the viability of the cells, 10 μl of an Alamar Blue solution (Biosource) are added and the fluorescence was measured at an extinction of 544 nm and an emission of 590 nm. For the calculation of the cell viability the emission value from untreated cells is set as 100% viability and the emission rates of treated cells are set in relation to the values of untreated cells. Viabilities are expressed as % values. Viability is compared of proliferating cells grown in the absence of the inducer Ponasterone A, versus viability of cells arrested by the expression of ectopic p27Kip1 induced by Ponasterone A.
Background: Resazurin is reduced to fluorescent resorufin, in cell work by metabolically active cells.

Test [2] relates to RKO (RKOp27) human colon adenocarcinoma cells. As to the kind of experiment: Alamar Blue cell viability assay, anti-proliferative/cytotoxic activity on proliferating (uninduced) RKOp27 cells. The format is cell-based. Particulars: 72 hours incubation, absence of the inducer Ponasterone A, read-out: IC50 RKO p27 uninduced (proliferating). On the procedure:
The anti-proliferative/cytotoxic activity of the compounds described herein, can be tested on subclones of RKO (RKOp27) human colon adenocarcinoma cells (Schmidt et al., Oncogene 19, 2423-2429; 2000) using the Alamar Blue cell viability assay (described in O'Brien et al. Eur J Biochem 267, 5421-5426, 2000). The compounds are dissolved as 20 mM solutions in dimethylsulfoxide (DMSO) and subsequently diluted in semi-logarithmic steps. DMSO dilutions are further diluted 1:100 into Dulbecco's modified Eagle's medium (DMEM) containing 10% fetal calf serum to a final concentration twice as much as the final concentration in the test. RKO subclones are seeded into 96 well flat bottom plates at a density of 5000 cells per well in a volume of 50 μl per well. 24 hours after seeding the 50 μl each of the compound dilutions in DMEM medium are added into each well of the 96 Well plate. Each compound dilution is tested as quadruplicates. Wells containing untreated control cells are filled with 50 μl DMEM medium containing 1% DMSO. The cells are then incubated with the substances for 72 hours at 37° C. in a humified atmosphere containing 5% carbon dioxide. To determine the viability of the cells, 10 μl of an Alamar Blue solution (Biosource) are added and the fluorescence is measured at an extinction of 544 nm and an emission of 590 nm. For the calculation of the cell viability the emission value from untreated cells is set as 100% viability and the emission rates of treated cells are set in relation to the values of untreated cells. Viabilities are expressed as % values.
The corresponding IC50 values of the compounds for anti-proliferative/cytotoxic activity are determined from the concentration-effect curves.
Representative IC50 values for anti-proliferation/cytotoxicity determined in the mentioned assay follow from the following table A, in which the numbers of the compounds correspond to the numbers of the examples.

Here are results for 21 compounds from US7763728B2, “Tetrahydropyridothiophenes” (4SC AG, priority 2005, dated 2010).

Where only a bound is given, the exact number is not on record here.

As a reminder, the IC50 is the point on the concentration scale where inhibition reaches its midpoint. Consider `COc1cccc(CCC(=O)Nc2sc3c(c2C#N)CCN(C(=O)CCCO)C3)c1` [Example 21, N-[3-Cyano-6-(4-hydroxy-butanoyl)-4,5,6,7-tetrahydro-thieno[2,3-c]pyridin-2-yl]-3-(3-methoxy-phenyl)-propionamide], for which the IC50 in test [1] is above 100 µM; in test [2] it was 0.3 to 2 µM.

For the compound `COc1ccccc1CCC(=O)Nc1sc2c(c1C#N)CCN(C(=O)Cn1ccnc1)C2` [Example 84, N-[3-Cyano-6-(2-imidazol-1-yl-ethanoyl)-4,5,6,7-tetrahydro-thieno[2,3-c]pyridin-2-yl]-3-(2-methoxy-phenyl)-propionamide], the IC50 is at least 40 µM in test [1] and at most 0.3 µM in test [2].

With `CCCC(=O)N1CCc2c(sc(NC(=O)CCc3ccccc3OCC)c2C#N)C1` [Example 24, N-(6-Butyryl-3-cyano-4,5,6,7-tetrahydro-thieno[2,3-c]pyridin-2-yl)-3-(2-ethoxy-phenyl)-propionamide], the IC50 in test [1] is above 100 µM; in test [2], at most 0.3 µM.

With `COc1ccccc1C(C)CC(=O)Nc1sc2c(c1C#N)CCN(C(=O)Cc1cccnc1)C2` (racemic) [Example 66, (RS)—N-[3-Cyano-6-(2-pyridin-3-yl-ethanoyl)-4,5,6,7-tetrahydro-thieno[2,3-c]pyridin-2-yl]-3-(2-methoxy-phenyl)-butyramide], the results for the IC50 in test [1] and in test [2] were above 100 µM and at most 0.3 µM, respectively.

As for `COc1ccccc1C(C)CC(=O)Nc1sc2c(c1C#N)CCN(C(=O)Cn1cnc(C)c1)C2` (racemic) [Example 135, (RS)—N-{3-Cyano-6-[2-(4-methyl-imidazol-1-yl)-ethanoyl]-4,5,6,7-tetrahydro-thieno[2,3-c]pyridin-2-yl}-3-(2-methoxy-phenyl)-butyramide], the results for the IC50 in test [1] and in test [2] were at least 40 µM and 0.3 to 2 µM, respectively.

Take `COc1ccccc1CCC(=O)Nc1sc2c(c1C#N)CCN(C(=O)Cc1ccncc1)C2` [Example 3, N-[3-Cyano-6-(2-pyridin-4-yl-ethanoyl)-4,5,6,7-tetrahydro-thieno[2,3-c]pyridin-2-yl]-3-(2-methoxy-phenyl)-propionamide]: the IC50 was at least 40 µM in test [1] and at most 0.3 µM in test [2].

`COc1ccc(C)cc1CCC(=O)Nc1sc2c(c1C#N)CCN(C(=O)CCc1ccccn1)C2` [Example 96, N-[3-Cyano-6-(3-pyridin-2-yl-propanoyl)-4,5,6,7-tetrahydro-thieno[2,3-c]pyridin-2-yl]-3-(2-methoxy-5-methyl-phenyl)-propionamide]: the IC50 in test [1] was above 100 µM; in test [2], 0.3 to 2 µM.

For `COc1ccc(C)cc1CCC(=O)Nc1sc2c(c1C#N)CCN(C(=O)Cn1cc(C)nc1C)C2` [Example 149, N-{3-Cyano-6-[2-(2,4-dimethyl-imidazol-1-yl)-ethanoyl]-4,5,6,7-tetrahydro-thieno[2,3-c]pyridin-2-yl}-3-(2-methoxy-5-methyl-phenyl)-propionamide], the IC50 in test [1] was at least 10 µM; in test [2] it was 0.3 to 2 µM.

As for `CCOc1cccc(C(C)CC(=O)Nc2sc3c(c2C#N)CCN(C(=O)Cc2ccncc2)C3)c1` (racemic) [Example 69, (RS)—N-[3-Cyano-6-(2-pyridin-4-yl-ethanoyl)-4,5,6,7-tetrahydro-thieno[2,3-c]pyridin-2-yl]-3-(3-ethoxy-phenyl)-butyramide], the IC50 in test [1] is above 100 µM; in test [2] it was 0.3 to 2 µM.

As for `COc1ccccc1CCC(=O)Nc1sc2c(c1C#N)CCN(C(=O)Cn1cc(C)nc1C)C2` [Example 147, N-{3-Cyano-6-[2-(2,4-dimethyl-imidazol-1-yl)-ethanoyl]-4,5,6,7-tetrahydro-thieno[2,3-c]pyridin-2-yl}-3-(2-methoxy-phenyl)-propionamide], the IC50 was at least 10 µM in test [1] and at most 0.3 µM in test [2].

With `COc1ccc(C)cc1CCC(=O)Nc1sc2c(c1C#N)CCN(C(=O)CCc1nccn1C)C2` [Example 118, N-{3-Cyano-6-[3-(1-methyl-1H-imidazol-2-yl)-propanoyl]-4,5,6,7-tetrahydro-thieno[2,3-c]pyridin-2-yl}-3-(2-methoxy-5-methyl-phenyl)-propionamide], the results for the IC50 in test [1] and in test [2] were at least 10 µM and 0.3 to 2 µM, respectively.

With `COc1cccc(CCC(=O)Nc2sc3c(c2C#N)CCN(C(=O)CCc2ccccn2)C3)c1` [Example 16, N-[3-Cyano-6-(3-pyridin-2-yl-propanoyl)-4,5,6,7-tetrahydro-thieno[2,3-c]pyridin-2-yl]-3-(3-methoxy-phenyl)-propionamide], the results for the IC50 in test [1] and in test [2] were above 100 µM and 0.3 to 2 µM, respectively.

Consider `CCOc1ccccc1C(C)CC(=O)Nc1sc2c(c1C#N)CCN(C(=O)Cc1cccnc1)C2` (racemic) [Example 67, (RS)—N-[3-Cyano-6-(2-pyridin-3-yl-ethanoyl)-4,5,6,7-tetrahydro-thieno[2,3-c]pyridin-2-yl]-3-(2-ethoxy-phenyl)-butyramide], for which the IC50 is above 100 µM in test [1] and at most 0.3 µM in test [2].

Consider `COc1ccc(C)cc1CCC(=O)Nc1sc2c(c1C#N)CCN(C(=O)CCc1ccncc1)C2` [Example 124, N-[3-Cyano-6-(3-pyridin-4-yl-propanoyl)-4,5,6,7-tetrahydro-thieno[2,3-c]pyridin-2-yl]-3-(2-methoxy-5-methyl-phenyl)-propionamide], for which the concentration for half-maximal inhibition (IC50) in test [1] is at least 10 µM; in test [2] it was 0.3 to 2 µM.

With `CCOc1ccccc1CCC(=O)Nc1sc2c(c1C#N)CCN(C(=O)Cn1cc(C)nc1C)C2` [Example 148, N-{3-Cyano-6-[2-(2,4-dimethyl-imidazol-1-yl)-ethanoyl]-4,5,6,7-tetrahydro-thieno[2,3-c]pyridin-2-yl}-3-(2-ethoxy-phenyl)-propionamide], the IC50 was at least 10 µM in test [1] and at most 0.3 µM in test [2].

Regarding `COc1ccccc1CCC(=O)Nc1sc2c(c1C#N)CCN(C(=O)CCn1cnc(C)c1)C2` [Example 155, N-{3-Cyano-6-[3-(4-methyl-imidazol-1-yl)-propanoyl]-4,5,6,7-tetrahydro-thieno[2,3-c]pyridin-2-yl}-3-(2-methoxy-phenyl)-propionamide], the IC50 in test [1] was at least 10 µM; in test [2], 0.3 to 2 µM.

For the compound `COc1ccc(C)cc1CCC(=O)Nc1sc2c(c1C#N)CCN(C(=O)CCc1cc(C)ccn1)C2` [Example 34, N-{3-Cyano-6-[3-(4-methyl-pyridin-2-yl)-propanoyl]-4,5,6,7-tetrahydro-thieno[2,3-c]pyridin-2-yl}-3-(2-methoxy-5-methyl-phenyl)-propionamide], the IC50 in test [1] is above 100 µM; in test [2], 0.3 to 2 µM.

Turning to `COc1cccc(C(C)CC(=O)Nc2sc3c(c2C#N)CCN(C(=O)Cc2cccnc2)C3)c1` (racemic) [Example 64, (RS)—N-[3-Cyano-6-(2-pyridin-3-yl-ethanoyl)-4,5,6,7-tetrahydro-thieno[2,3-c]pyridin-2-yl]-3-(3-methoxy-phenyl)-butyramide], the values for the IC50 in test [1] and in test [2] were at least 40 µM and 0.3 to 2 µM, respectively.

In the case of `CCCC(=O)N1CCc2c(sc(NC(=O)CC(C)c3ccccc3OCC)c2C#N)C1` (racemic) [Example 90, (RS)—N-(6-Butyryl-3-cyano-4,5,6,7-tetrahydro-thieno[2,3-c]pyridin-2-yl)-3-(2-ethoxy-phenyl)-butyramide], the results for the IC50 in test [1] and in test [2] were above 100 µM and at most 0.3 µM, respectively.

`CCOc1ccccc1CCC(=O)Nc1sc2c(c1C#N)CCN(C(=O)Cc1cccnc1)C2` [Example 27, N-[3-Cyano-6-(2-pyridin-3-yl-ethanoyl)-4,5,6,7-tetrahydro-thieno[2,3-c]pyridin-2-yl]-3-(2-ethoxy-phenyl)-propionamide]: the IC50 in test [1] is at least 40 µM; in test [2], at most 0.3 µM.

For the compound `COc1cccc(C(C)CC(=O)Nc2sc3c(c2C#N)CCN(C(=O)CCc2ccncc2)C3)c1` (racemic) [Example 79, (RS)—N-[3-Cyano-6-(3-pyridin-4-yl-propanoyl)-4,5,6,7-tetrahydro-thieno[2,3-c]pyridin-2-yl]-3-(3-methoxy-phenyl)-butyramide], the IC50 is above 100 µM in test [1] and 0.3 to 2 µM in test [2].
